What was measured:
Settings in all cases: 72 h
Caco-2 [1] = assay: cell viability relative to DMSO; higher = less toxic
Calu-3 [2] = assay: as above
HepG2 [3] = assay: as above
U2OS [4] = assay: as above
Vero E6 [5] = assay: as above
Caco-2 [6] = assay: relative viability EC50 (midpoint between 100% and the lowest measured viability); higher = less toxic
Calu-3 [7] = assay: as above
HepG2 [8] = assay: as above
U2OS [9] = assay: as above
Vero E6 [10] = assay: as above
Caco-2 [11] = assay: drug sensitivity score (DSS) for viability; higher = more toxic; extreme values may be limits of the assay
Calu-3 [12] = assay: as above
HepG2 [13] = assay: as above
U2OS [14] = assay: as above
Vero E6 [15] = assay: as above

Structure (SMILES) | cell viability (Caco-2 [1]; 1 nM) | cell viability (Caco-2 [1]; 10 nM) | cell viability (Caco-2 [1]; 100 nM) | cell viability (Caco-2 [1]; 1000 nM) | cell viability (Caco-2 [1]; 10000 nM) | cell viability (Calu-3 [2]; 1 nM) | cell viability (Calu-3 [2]; 10 nM) | cell viability (Calu-3 [2]; 100 nM) | cell viability (Calu-3 [2]; 1000 nM) | cell viability (Calu-3 [2]; 10000 nM) | cell viability (HepG2 [3]; 1 nM) | cell viability (HepG2 [3]; 10 nM) | cell viability (HepG2 [3]; 100 nM) | cell viability (HepG2 [3]; 1000 nM) | cell viability (HepG2 [3]; 10000 nM) | cell viability (U2OS [4]; 1 nM) | cell viability (U2OS [4]; 10 nM) | cell viability (U2OS [4]; 100 nM) | cell viability (U2OS [4]; 1000 nM) | cell viability (U2OS [4]; 10000 nM) | cell viability (Vero E6 [5]; 1 nM) | cell viability (Vero E6 [5]; 10 nM) | cell viability (Vero E6 [5]; 100 nM) | cell viability (Vero E6 [5]; 1000 nM) | cell viability (Vero E6 [5]; 10000 nM) | relative viability EC50 (Caco-2 [6]) | relative viability EC50 (Calu-3 [7]) | relative viability EC50 (HepG2 [8]) | relative viability EC50 (U2OS [9]) | relative viability EC50 (Vero E6 [10]) | drug sensitivity score (Caco-2 [11]) | drug sensitivity score (Calu-3 [12]) | drug sensitivity score (HepG2 [13]) | drug sensitivity score (U2OS [14]) | drug sensitivity score (Vero E6 [15])
CC(=O)O[C@]1(C(C)=O)CC[C@H]2[C@@H]3C[C@H](C)C4=CC(=O)C=C[C@]4(C)[C@@]3(F)[C@@H](O)C[C@@]21C [fluorometholone-acetate] | 99.9% | 109% | 99.1% | 104% | 86.6% | 103% | 100% | 97.8% | 106% | 98.9% | 102% | 95.6% | 101% | 92.7% | 89.7% | 105% | 103% | 99.3% | 98.5% | 96.2% | 93.5% | 98.3% | 93.9% | 95.7% | 90.4% | > 10 µM | > 10 µM | > 10 µM | > 10 µM | > 10 µM | 0.1 | 0 | 0 | 0 | 0
Oc1cc2c(cc1O)[C@@H]1c3ccc(O)c(O)c3OC[C@]1(O)C2 [hematoxylin] | 98.4% | 89.9% | 93% | 108% | 90% | 97.1% | 103% | 92.4% | 110% | 96.1% | 104% | 100% | 96.4% | 104% | 105% | 98.5% | 93.5% | 99.2% | 103% | 91.1% | 95.2% | 99.3% | 92.7% | 95.5% | 102% | > 10 µM | > 10 µM | > 10 µM | > 10 µM | > 10 µM | 0 | 0 | 0 | 0 | 0
Fc1ccc2c(CCNCc3cccc(OCC(F)(F)C(F)F)c3)c[nH]c2c1 [idalopirdine] | 96.3% | 97.5% | 91.5% | 87.1% | 109% | 90.3% | 102% | 91.4% | 101% | 99.7% | 97.5% | 93.7% | 99.2% | 94.8% | 88.2% | 95.3% | 97% | 99.7% | 95.4% | 96.7% | 101% | 95.2% | 98.7% | 95.2% | 84.9% | > 10 µM | > 10 µM | > 10 µM | > 10 µM | > 10 µM | 0 | 0 | 0 | 0 | 0.5
C[C@@H](O)[C@H]1C(=O)N2C(C(=O)O)=C(SCCNC=N)C[C@H]12 [imipenem] | 97.2% | 98.4% | 98.2% | 92.6% | 106% | 88% | 87.6% | 107% | 86.3% | 93.4% | 98.7% | 98.5% | 96.2% | 100% | 107% | 99.1% | 98.2% | 102% | 97.4% | 97.2% | 97.9% | 102% | 89.2% | 100% | 110% | > 10 µM | > 10 µM | > 10 µM | > 10 µM | > 10 µM | 0 | 0 | 0 | 0 | 0
N#CCC1(n2cc(-c3ncnc4[nH]ccc34)cn2)CN(C2CCN(C(=O)c3ccnc(C(F)(F)F)c3F)CC2)C1 [itacitinib] | 101% | 98.6% | 97.2% | 132% | 90.1% | 111% | 104% | 101% | 93.6% | 90.4% | 95.3% | 98.9% | 95% | 96.1% | 91.6% | 98.6% | 91% | 97.5% | 95.8% | 96% | 100% | 96.1% | 98.3% | 100% | 98.5% | > 10 µM | > 10 µM | > 10 µM | > 10 µM | > 10 µM | 0 | 0 | 0 | 0 | 0
NC[C@H]1O[C@H](O[C@H]2[C@H](O)[C@@H](O[C@H]3O[C@H](CO)[C@@H](O)[C@H](N)[C@H]3O)[C@H](N)C[C@@H]2N)[C@H](O)[C@@H](O)[C@@H]1O [kanamycin] | 94.3% | 93.1% | 88.1% | 89.3% | 96.1% | 100% | 104% | 101% | 114% | 95.2% | 109% | 88.9% | 88% | 96.5% | 98.5% | 102% | 102% | 96.1% | 98.3% | 98.2% | 109% | 106% | 99.3% | 99% | 102% | > 10 µM | > 10 µM | > 10 µM | > 10 µM | > 10 µM | 0 | 0 | 0 | 0 | 0
CC(Oc1c(Cl)cccc1Cl)C1=NCCN1 (stereo not given) [lofexidine] | 100% | 106% | 101% | 93.8% | 95.6% | 99.3% | 108% | 87.6% | 103% | 94.6% | 90.7% | 105% | 104% | 90.7% | 100% | 103% | 106% | 100% | 100% | 99.6% | 101% | 101% | 95.7% | 103% | 103% | > 10 µM | > 10 µM | > 10 µM | > 10 µM | > 10 µM | 0 | 0 | 0 | 0 | 0
O=C(NC(=O)c1c(F)cccc1F)Nc1cc(Cl)c(OC(F)(F)C(F)C(F)(F)F)cc1Cl (stereo not given) [lufenuron] | 100% | 95.1% | 93.8% | 96.8% | 95% | 95.4% | 98.9% | 92.1% | 83.2% | 95.3% | 98.6% | 94.3% | 109% | 101% | 101% | 100% | 95.1% | 96.7% | 98.4% | 99.7% | 99.2% | 108% | 98.3% | 110% | 100% | > 10 µM | > 10 µM | > 10 µM | > 10 µM | > 10 µM | 0 | 0 | 0 | 0 | 0
CCCCN(CCCC)CC(O)c1cc(Cl)cc2c1-c1ccc(Cl)cc1/C2=C/c1ccc(Cl)cc1 (stereo not given) [lumefantrine] | 99.8% | 92.6% | 101% | 94.5% | 89.5% | 82.9% | 102% | 90% | 102% | 94.4% | 98.9% | 113% | 107% | 108% | 84.2% | 101% | 101% | 103% | 103% | 95.2% | 102% | 102% | 102% | 105% | 91.2% | > 10 µM | > 10 µM | > 10 µM | > 10 µM | > 10 µM | 0 | 0 | 0.1 | 0 | 0
COc1cccc2c1C(=O)c1c(O)c3c(c(O)c1C2=O)C[C@@](O)(C(=O)CO)C[C@@H]3O[C@H]1C[C@H](N2CCO[C@H](OC)C2)[C@H](O)[C@H](C)O1 [nemorubicin] | 88.8% | 24.6% | 30.4% | 32.6% | 24.5% | 69.2% | 21.2% | 35.1% | 31.5% | 30% | 55.4% | 0.1% | 6.3% | 3% | 1.5% | 91.8% | 1.3% | 0.9% | 0.3% | 1.3% | 72.6% | 2.4% | 2.8% | 0.8% | 2.7% | 0.002 µM | 0.0012 µM | 0.0011 µM | 0.0025 µM | 0.0016 µM | 35.1 | 38.4 | 48 | 44.1 | 46.1
OCc1cccnc1 [nicotinyl-alcohol-tartrate] | 97.8% | 97% | 102% | 96.1% | 106% | 96.6% | 100% | 92.7% | 99.3% | 96.4% | 95.4% | 102% | 91.2% | 104% | 96.1% | 102% | 104% | 96.7% | 100% | 95.5% | 92.6% | 101% | 87.8% | 101% | 91.8% | > 10 µM | > 10 µM | > 10 µM | > 10 µM | > 10 µM | 0 | 0 | 0 | 0 | 0
O=C1NCCN1c1ncc([N+](=O)[O-])s1 [niridazole] | 105% | 80.1% | 93.2% | 87.8% | 102% | 99.6% | 107% | 96.6% | 88% | 103% | 105% | 98.8% | 105% | 106% | 97.8% | 97.1% | 98.7% | 99.3% | 94.8% | 99.8% | 102% | 104% | 108% | 115% | 85.5% | > 10 µM | > 10 µM | > 10 µM | > 10 µM | > 10 µM | 0 | 0 | 0 | 0 | 0.1
CC(C)C[C@@H](N)C(=O)N[C@H]1C(=O)N[C@@H](CC(N)=O)C(=O)N[C@H]2C(=O)N[C@H]3C(=O)N[C@H](C(=O)N[C@H](C(=O)O)c4cc(O)cc(O)c4-c4cc3ccc4O)[C@H](O)c3ccc(c(Cl)c3)Oc3cc2cc(c3O[C@@H]2O[C@H](CO)[C@@H](O)[C@H](O)[C@H]2O[C@H]2C[C@](C)(N)[C@H](O)[C@H](C)O2)Oc2ccc(cc2Cl)[C@H]1O [norvancomycin] | 91.9% | 93.8% | 104% | 95.7% | 98.5% | 102% | 100% | 104% | 97.9% | 91.9% | 102% | 95.8% | 97.3% | 86.9% | 97.7% | 100% | 104% | 96.6% | 102% | 102% | 109% | 94.8% | 102% | 97% | 104% | > 10 µM | > 10 µM | > 10 µM | > 10 µM | > 10 µM | 0 | 0 | 0 | 0 | 0

From the supplement of paper PMC13380429
